Experimental data published in publication PMC11286508, “Repurposing pexmetinib as an inhibitor of TKI-resistant BCR::ABL1” (Leukemia, 2024).

Experiments:
[1] = test system: T1, BCR::ABL1 (Ba/F3 isogenic cells); test: Ba/F3 MTS viability assay; type: cell-based; conditions: growth of BCR::ABL1-dependent Ba/F3 cells; stated gain
T1 construct: BCR::ABL1 fusion oncoprotein, one polypeptide (BCR N-terminal, ABL1 C-terminal); expressed in murine Ba/F3 cells by electroporation; with Breakpoint cluster region protein

[2] = test system: T1, BCR::ABL1 (Ba/F3 isogenic cells); test: Ba/F3 MTS viability assay; type: cell-based; conditions: growth of BCR::ABL1-dependent Ba/F3 cells; parental Ba/F3 + IL-3 as control

IC50 [1]: 2099 nM
Structure (SMILES): Cc1ccc(-n2nc(C(C)(C)C)cc2NC(=O)NCc2cc(F)ccc2Oc2ccc3c(cnn3CCO)c2)cc1 [pexmetinib]
IC50 [2]: 411 nM
